“And” between values parts separate entries of the source, which are not always exact repeats. Equal entries are not always repeated.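 In this assay, cells in 96-well plates receive the compound at five concentrations for 48 hours. Endpoints are linearly interpolated between the surrounding concentrations. Here, GI50 denotes the concentration required for 50% inhibition of growth. Definition used: TGI = concentration required for complete inhibition of growth.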
What was measured:
Test in all cases: growth of human tumour cells (NCI), 48 h
[1] = system: CCRF-CEM leukemia
[2] = system: COLO 205 colon
[3] = system: NCI-H23 lung
[4] = system: HCC-2998 colon
[5] = system: SR leukemia
[6] = system: SK-MEL-5 melanoma
[7] = system: SW-620 colon
[8] = system: M14 melanoma

| Compound | GI50 [1] | TGI [1] | GI50 [2] | TGI [2] | GI50 [3] | TGI [3] | GI50 [4] | TGI [4] | GI50 [5] | TGI [5] | GI50 [6] | TGI [6] | GI50 [7] | TGI [7] | GI50 [8] | TGI [8] |
| --- | --- | --- | --- | --- | --- | --- | --- | --- | --- | --- | --- | --- | --- | --- | --- | --- |
| CC(C)(C)CC(C)(C)c1ccc(O)c(Cc2ccc(Cl)cc2Cl)c1 | 1.53 µM | 3.19 µM | 1.77 µM | 3.15 µM | 1.53 µM | 2.89 µM | 1.79 µM | 3.25 µM | 1.79 µM | 4.22 µM | 1.6 µM | 2.95 µM | 1.64 µM | 2.99 µM | 1.61 µM | 3.08 µM |
| Cn1cc(-c2nc(-c3c[nH]c4ncccc34)cs2)c2ccccc21 | 24.1 µM | > 100 µM | 24.1 µM | > 100 µM | 4.49 µM | > 100 µM | 1.16 µM | > 100 µM | 3.72 µM | > 100 µM | 0.595 µM | > 100 µM | 35.9 µM | > 100 µM | 19.3 µM | > 100 µM |
| COc1cc(-c2nc3sc(C)cn3c2/C=C2\C(=O)Nc3ccccc32)c(Br)c(OC)c1OC | 43.2 µM | > 100 µM | 25.7 µM | 66.2 µM | 30.9 µM | > 100 µM | 29 µM | 78 µM | 28.3 µM | > 100 µM | 19.5 µM | 43.2 µM | 30.6 µM | > 100 µM | 29.1 µM | > 100 µM |
| O=C1CC(c2ccccc2)Cc2nc3ccc(Br)cc3cc21 (configuration not stated) | 0.0492 µM | > 100 µM | 0.281 µM | 1.8 µM | 0.575 µM | > 100 µM | 1.57 µM | 16.8 µM | 0.0855 µM | > 36.8 µM | 0.342 µM | 2.22 µM | 0.362 µM | > 100 µM | 0.0486 µM | 12.4 µM |
| Oc1c(Cl)cc(Cl)cc1/C=N/Nc1nnc(N/N=C/c2cc(Cl)cc(Cl)c2O)c2ccccc12 | 0.275 µM |  | 0.433 µM | > 100 µM | 0.406 µM | > 100 µM | 0.469 µM | > 100 µM | 0.434 µM | > 100 µM | 0.505 µM | 2.2 µM | 0.416 µM | > 100 µM | 0.434 µM | > 100 µM |
| CC(C)(C)c1cc(NC(=O)Nc2ccc(-c3cn4c(n3)sc3cc(OCCN5CCOCC5)ccc34)cc2)no1 | 0.18 µM and 1.49 µM | 18.6 µM and > 10 µM | 7.75 µM and 1.21 µM and 1.76 µM | > 45.7 µM and 8.31 µM and 8.55 µM |  | 26.8 µM and 12.8 µM and > 10 µM | 14.1 µM and 11.7 µM and 7.03 µM | 61.5 µM and 52.3 µM and > 10 µM |  | > 47.9 µM and 11.2 µM and > 10 µM | 3.81 µM and 0.985 µM and 1.97 µM | 18.2 µM and 3.31 µM and > 10 µM | 11.4 µM and 2.86 µM and > 10 µM | 27.2 µM and 17.6 µM and > 10 µM | 8.49 µM and 1.28 µM and 6.56 µM | 26.8 µM and 16 µM and > 10 µM |
| COc1ccc(CCN(CC(=O)N(CC(N)=O)C2CCC[C@@H]2OCc2ccccc2)C(=O)CN(C(=O)CN(CCc2ccc(Cl)cc2)C(=O)CN(C(=O)CN(C)Cc2ccccc2F)[C@H](C)C2CCCCC2)[C@H](C)C2CCCCC2)cc1OC (some centres not stated) | 1.66 µM | 15.1 µM | 0.893 µM | 2.4 µM | 3.26 µM | > 50 µM | 1.61 µM | > 50 µM | 0.69 µM | 2.23 µM | 1.7 µM | 8.62 µM | 2.56 µM | > 50 µM | 1.13 µM | 4.05 µM |
| COC(=O)c1cc2oc(/C=C3/SC(=S)N(N)C3=O)cc2n1Cc1ccccc1 | > 100 µM | > 100 µM | 5.42 µM | 20.7 µM | 4.46 µM | 21.2 µM | 3.89 µM | 19.1 µM | > 21.4 µM | > 100 µM | 1.99 µM | 7.03 µM | 13.4 µM | > 29.5 µM | 4.33 µM | 31.2 µM |
| Oc1ccc2c3c1OC1c4[nH]ncc4C[C@H]4[C@@H](C2)N(CC2CC2)CC[C@]314 (some centres not stated) |  | > 100 µM |  | > 100 µM |  | > 100 µM |  | > 100 µM |  | > 100 µM |  | > 100 µM |  |  |  | > 100 µM |
| COc1cc(N2C(=O)[C@H](c3ccccc3)C2c2ccc(SC)cc2)cc(OC)c1OC (some centres not stated) | 0.0377 µM | > 100 µM | 0.0367 µM | 1.46 µM | 0.0502 µM | > 100 µM | 0.0438 µM | > 100 µM | 0.0411 µM | > 100 µM | 0.0266 µM | 0.0821 µM | 0.0382 µM | > 100 µM |  |  |
| CN(C)CCCSc1ccccc1NC1=C(Cl)C(=O)C(Nc2ccccc2SCCCN(C)C)=C(Cl)C1=O | 0.476 µM | 4.15 µM | 2.08 µM | 4.03 µM | 1.75 µM | 3.74 µM | 2.11 µM | 5.49 µM | 2.15 µM | 6.05 µM | 1.83 µM | 3.55 µM | 2.17 µM | 4.38 µM | 1.74 µM | 3.72 µM |
| CC1(C)N=C(N)N=C(N)N1c1ccc(Cl)cc1 | > 100 µM | > 100 µM | 21.4 µM | > 100 µM | 2.51 µM | > 100 µM | 2.01 µM | 11.1 µM | 20.5 µM | > 100 µM | 3.99 µM | > 100 µM | 0.832 µM | > 100 µM | 5.52 µM | > 100 µM |
| C=C1C(=O)O[C@H]2[C@H](OC(C)=O)[C@@H](C)CCCC3(C)OC3CCC3(CO3)[C@H](O)C[C@@H]12 (some centres not stated) | 2.44 µM | 7.27 µM | 3.8 µM | 65.6 µM |  |  | 1.99 µM | 7.21 µM | 0.568 µM | 2.26 µM | 11.9 µM | 24.9 µM | 5.16 µM | 19.6 µM | 11.1 µM | 23.6 µM |
| CN(C)CC(=O)Nc1ccc2ncnc(Nc3ccc(Oc4cccc(C(F)(F)F)c4)c(Cl)c3)c2c1 | 2.52 µM | 10.4 µM |  |  | 3.79 µM | 14.8 µM | 1.66 µM | 3.19 µM | 2.46 µM | 9.15 µM | 1.69 µM | 3.09 µM | 1.66 µM | 3.3 µM | 1.46 µM | 2.85 µM |
| CC(C)(C)c1cc(/C=N/NC(=O)c2ccccc2NC(=O)c2cccs2)c(O)c(C(C)(C)C)c1 | 0.336 µM | 11.7 µM | 0.412 µM | 22.2 µM | 1.62 µM | 25.5 µM | 0.88 µM | 30.1 µM | 0.786 µM | 3.6 µM | 0.7 µM | > 100 µM | 1.38 µM | 17.8 µM | 0.459 µM | 16 µM |

From PubChem BioAssay (NCI)
